Test results reported in patent US20200407674A1, “CELL HOLDING AND TRANSPORTING DEVICE” (Stem Cell & Device Laboratory, Inc., priority 2018, published 2020).

System: human iPS cell-derived cardiac myocytes
Assay: Extracellular potential of cultured cardiac myocytes measured with MEA probe using device 1700
Assay type: cell-based
Details: dofetilide 0.0003, 0.001, 0.003 μM vs DMSO alone; MEA probe (MED64 System); FIG. 23
From the text: The method of using the device for retaining and transporting cells 1700 when measuring cell characteristics is described here by taking an example of measuring an extracellular potential generated by cell activity of cardiac myocytes that is formed in the device for retaining and transporting cells 1700. An MEA (Multi-Electrode Array) probe P is used for measuring the extracellular potential. The MEA probe P is a device for measuring the extracellular potential generated by cellular activity. […] The substrate PB has a thin plate shape, and the molten wall PW is formed on the substrate PB. The melted wall PW has a cylindrical shape with one end open, and stores a medium inside, forming a cell arrangement space PS for placing the cells to be tested. […] The extracellular potential of the cultured cardiac myocytes was measured using the device 1700 that is formed using polycarbonate and that has a base 1701 (diameter: 6 mm, thickness: 0.7 mm), a through hole 1703 (diameter: 1.5 mm), a cell culture holding part 105 made of an oriented fiber sheet with a pitch of 10 μm, a manipulating part 1707, and the air vent section 1711, and the MEA probe P (MED64 System, Alpha MED Scientific Inc.). […] The drug response of the cultured cardiac myocytes can be measured by means of the extracellular potential by changing the conditions of the drug to be administered to the cultured cardiac myocytes. […]

CN(CCOc1ccc(NS(C)(=O)=O)cc1)CCc1ccc(NS(C)(=O)=O)cc1 [dofetilide, Dofetilide]
time required from the first peak potential to the second peak potential: prolonged depending on the concentration
